Test results reported in patent publication US20050112573A1, “Method of detecting toxic substance” (priority 2001, published 2005).

Tested on: yeast genes (level of expressed mRNA)
Assay: DNA chip analysis of expressed mRNA of yeast genes after 2 h culture with a toxic chemical substance
Format: cell-based, Saccharomyces cerevisiae S288C
Conditions: for The level of expressed mRNA in the presence of chemical substance/ (ratio to absence of chemical substance): stress protein genes, DNA chip
Experimental: Yeast (Saccharomyces cerevtisiae S288C (α SUC2mal mel gap2 CUP1)) were cultured at 25° C. on YPD medium (yeast extract 1%, polypepton 2%, glucose 2%). One of toxic chemical substances was added to the cell at logarithmic growth phase, and the cell was further cultured for two hours. Cell was cultured without any chemical substance in the same condition, and was used as control. Concentrations of the chemical substances were defined to inhibit the growth of the yeast but not lead to death.
After the completion of cultivation, the culture was centrifuged to collect the cells. To the cells, sodium acetate buffer (50 mM sodium acetate, 10 mM EDTA, 1% SDS) was added, and the mixture was shaken at 65° C. for five minutes, followed by returning to room temperature, and obtaining the supernatant, which procedure was repeated two times. To the supernatant, ½ amount of a solution of phenol/chloroform was added, and the mixture was centrifuged to give a supernatant, which was added with an equal amount of chloroform, and the mixture was centrifuged to give a supernatant. To the supernatant, an equal amount of isopropanol containing 0.3 M sodium acetate was added, and the mixture was allowed to stand at room temperature for 30 minutes, after which the mixture was centrifuged to give a sediment of the whole RNAs. Seventy % ethanol was added to the sediment, and the mixture was again centrifuged to give a sediment, which was then dried and dissolved in water. mRNA was isolated from the whole RNAs as followings. In view of the fact that a poly A chain is attached to the 3′ terminus of mRNA, a polynucleotide having a poly T structure which was immobilized on the surface of latex beads was used to trap the mRNA, and then the mRNA was washed and eluted with spine column (Oligotex-dT30<Super>mRNA Purification Kit, Takara). Reverse transcription of the mRNA was conducted with a reverse transcriptase (Super Script II Reverse Transcriptase; catalogue No. 18064-014, GibcoBRL) using fluorescence-labeled nucleotides to give cDNAs that were introduced with Cy3-dUTP or Cy5-dUTP during the reverse transcription.
The labeled cDNAs were dissolved in TE buffer (10 mM Tris-HCl/1 mM EDTA, pH8.0), and the solution was dropped on the DNA chip containing the whole genes of yeast (DNA Chip Research Inc. Japan) so that the cDNAs were hybridized on the DNA chip at 65° C. for over 12 hours. The fluoresces intensity of the DNA chip was read with a scanner, and the ratio relative to the fluorescence intensity resulting from the absence of chemical substance was estimated as the following, which is shown in Tables 1 to 9: [formula]
In the Tables, “Intensity” indicated in the rightmost column is a value of the level of expressed mRNA of each gene in control cells as divided by the average level of the expressions of the whole genes.

With `C[S+](C)[O-]` [(15), dimethylsulfoxide] the “The level of expressed mRNA in the presence of chemical substance/ in its absence, gene YDL078C” value (yeast gene YDL078C, ratio of DNA chip fluorescence intensity to that without chemical substance) was 0.5, the “The level of expressed mRNA in the presence of chemical substance/ (in its absence), gene YDL215C” value (yeast gene YDL215C, ratio of DNA chip fluorescence intensity to that without chemical substance) was 1.1 and the “The level of expressed mRNA in the presence of chemical substance/The level of expressed mRNA in the absence of chemical substance” value (yeast gene YDL238C) was 1.3. The “The level of expressed mRNA in the presence of chemical substance/The level of expressed mRNA in the absence of chemical substance” value (yeast gene YDR055W) was 5.7, the “The level of expressed mRNA in the presence of chemical substance/ (in its absence), gene YDR073W” value (yeast gene YDR073W, ratio of DNA chip fluorescence intensity to that without chemical substance) was 0.8 and the “The level of expressed mRNA in the presence of chemical substance/ in its absence, gene YDR079W” value (yeast gene YDR079W, energy system protein genes, 2 h culture with the chemical, ratio to control without chemical) was 0.6. The “The level of expressed mRNA in the presence of chemical substance/ (ratio to absence), gene YDR079W” value (yeast gene YDR079W, mitochondria-located protein genes, 2 h culture with chemical) was 0.6, the “The level of expressed mRNA in the presence of chemical substance/The level of expressed mRNA in the absence of chemical substance” value (yeast gene YDR084C) was 3.9 and the “The level of expressed mRNA in the presence of chemical substance/The level of expressed mRNA in the absence of chemical substance” value (yeast gene YDR085C) was 3.1. The “The level of expressed mRNA in the presence of chemical substance/The level of expressed mRNA in the absence of chemical substance” value (yeast gene YDR104C) was 1.4, the “The level of expressed mRNA in the presence of chemical substance/The level of expressed mRNA in the absence of chemical substance” value (yeast gene YDR115W) was 0.8 and the “The level of expressed mRNA in the presence of chemical substance/The level of expressed mRNA in the absence of chemical substance” value (yeast gene YDR259C) was 2.9. For the same compound, the “The level of expressed mRNA in the presence of chemical substance/ (in its absence), gene YDR297W” value (yeast gene YDR297W, ratio of DNA chip fluorescence intensity to that without chemical substance) was 1.4, the “The level of expressed mRNA in the presence of chemical substance/The level of expressed mRNA in the absence of chemical substance” value (yeast gene YDR315C) was 1.5 and the “The level of expressed mRNA in the presence of chemical substance/The level of expressed mRNA in the absence of chemical substance” value (yeast gene YDR358W) was 0.9. The “The level of expressed mRNA in the presence of chemical substance/ (ratio to absence), gene YDR377W” value (yeast gene YDR377W, mitochondria-located protein genes, 2 h culture with chemical) was 0.6, the “The level of expressed mRNA in the presence of chemical substance/ (in its absence), gene YDR387C” value (yeast gene YDR387C, ratio of DNA chip fluorescence intensity to that without chemical substance) was 1.4 and the “The level of expressed mRNA in the presence of chemical substance/The level of expressed mRNA in the absence of chemical substance” value (yeast gene YDR388W) was 2.6. The “The level of expressed mRNA in the presence of chemical substance/The level of expressed mRNA in the absence of chemical substance” value (yeast gene YDR481C) was 3.5, the “The level of expressed mRNA in the presence of chemical substance/The level of expressed mRNA in the absence of chemical substance” value (yeast gene YDR510W) was 2.2 and the “The level of expressed mRNA in the presence of chemical substance/ (ratio to absence of chemical substance)” value (yeast gene YEL039C) was 0.4. For the same compound, the “The level of expressed mRNA in the presence of chemical substance/The level of expressed mRNA in the absence of chemical substance” value (yeast gene YEL066W) was 1.0, the “The level of expressed mRNA in the presence of chemical substance/ (in its absence), gene YER015W” value (yeast gene YER015W, ratio of DNA chip fluorescence intensity to that without chemical substance) was 0.8 and the “The level of expressed mRNA in the presence of chemical substance/The level of expressed mRNA in the absence of chemical substance” value (yeast gene YER039C) was 1.2. For the same compound, the “The level of expressed mRNA in the presence of chemical substance/ (ratio to absence of chemical substance)” value (yeast gene YER057C) was 1.7, the “The level of expressed mRNA in the presence of chemical substance/The level of expressed mRNA in the absence of chemical substance” value (yeast gene YER107C) was 0.7 and the “The level of expressed mRNA in the presence of chemical substance/The level of expressed mRNA in the absence of chemical substance” value (yeast gene YER130C) was 1.1. The “The level of expressed mRNA in the presence of chemical substance/The level of expressed mRNA in the absence of chemical substance” value (yeast gene YFL028C) was 0.8, the “The level of expressed mRNA in the presence of chemical substance/The level of expressed mRNA in the absence of chemical substance” value (yeast gene YFL043C) was 1.1 and the “The level of expressed mRNA in the presence of chemical substance/ (in its absence), gene YGL035C” value (yeast gene YGL035C, ratio of DNA chip fluorescence intensity to that without chemical substance) was 1.0. The “The level of expressed mRNA in the presence of chemical substance/ (in its absence), gene YGL115W” value (yeast gene YGL115W, ratio of DNA chip fluorescence intensity to that without chemical substance) was 0.7, the “The level of expressed mRNA in the presence of chemical substance/ (ratio to absence of chemical substance)” value (yeast gene YGL115W) was 0.7 and the “The level of expressed mRNA in the presence of chemical substance/The level of expressed mRNA in the absence of chemical substance” value (yeast gene YGL158W) was 2.3. For the same compound, the “The level of expressed mRNA in the presence of chemical substance/ (ratio to absence), gene YGL187C” value (yeast gene YGL187C, mitochondria-located protein genes, 2 h culture with chemical) was 0.3, the “The level of expressed mRNA in the presence of chemical substance/ (in its absence), gene YGL205W” value (yeast gene YGL205W, ratio of DNA chip fluorescence intensity to that without chemical substance) was 2.0 and the “The level of expressed mRNA in the presence of chemical substance/The level of expressed mRNA in the absence of chemical substance” value (yeast gene YGL229C) was 0.2. For the same compound, the “The level of expressed mRNA in the presence of chemical substance/ in its absence, gene YGR062C” value (yeast gene YGR062C, energy system protein genes, 2 h culture with the chemical, ratio to control without chemical) was 0.5, the “The level of expressed mRNA in the presence of chemical substance/ (ratio to absence), gene YGR062C” value (yeast gene YGR062C, mitochondria-located protein genes, 2 h culture with chemical) was 0.5 and the “The level of expressed mRNA in the presence of chemical substance/ (in its absence), gene YGR096W” value (yeast gene YGR096W, ratio of DNA chip fluorescence intensity to that without chemical substance) was 0.9. The “The level of expressed mRNA in the presence of chemical substance/The level of expressed mRNA in the absence of chemical substance” value (yeast gene YGR136W) was 2.6, the “The level of expressed mRNA in the presence of chemical substance/The level of expressed mRNA in the absence of chemical substance” value (yeast gene YGR189C) was 9.3 and the “The level of expressed mRNA in the presence of chemical substance/The level of expressed mRNA in the absence of chemical substance” value (yeast gene YGR213C) was 6.5. For the same compound, the “The level of expressed mRNA in the presence of chemical substance/The level of expressed mRNA in the absence of chemical substance” value (yeast gene YGR257C) was 1.3, the “The level of expressed mRNA in the presence of chemical substance/ (in its absence), gene YGR287C” value (yeast gene YGR287C, ratio of DNA chip fluorescence intensity to that without chemical substance) was 2.3 and the “The level of expressed mRNA in the presence of chemical substance/ (in its absence), gene YGR288W” value (yeast gene YGR288W, ratio of DNA chip fluorescence intensity to that without chemical substance) was 0.8. The “The level of expressed mRNA in the presence of chemical substance/ (ratio to absence of chemical substance)” value (yeast gene YHL028W) was 0.6, the “The level of expressed mRNA in the presence of chemical substance/ (ratio to absence of chemical substance)” value (yeast gene YHL046C) was 1.0 and the “The level of expressed mRNA in the presence of chemical substance/The level of expressed mRNA in the absence of chemical substance” value (yeast gene YHR004C) was 1.2. The “The level of expressed mRNA in the presence of chemical substance/The level of expressed mRNA in the absence of chemical substance” value (yeast gene YHR071W) was 3.0, the “The level of expressed mRNA in the presence of chemical substance/The level of expressed mRNA in the absence of chemical substance” value (yeast gene YHR139C) was 1.9 and the “The level of expressed mRNA in the presence of chemical substance/The level of expressed mRNA in the absence of chemical substance” value (yeast gene YHR142W) was 4.8. For the same compound, the “The level of expressed mRNA in the presence of chemical substance/ (in its absence), gene YHR210C” value (yeast gene YHR210C, ratio of DNA chip fluorescence intensity to that without chemical substance) was 0.5, the “The level of expressed mRNA in the presence of chemical substance/ (in its absence), gene YIL006W” value (yeast gene YIL006W, ratio of DNA chip fluorescence intensity to that without chemical substance) was 1.5 and the “The level of expressed mRNA in the presence of chemical substance/ (ratio to absence of chemical substance)” value (yeast gene YIL011W) was 0.9. The “The level of expressed mRNA in the presence of chemical substance/The level of expressed mRNA in the absence of chemical substance” value (yeast gene YIL123W) was 4.8, the “The level of expressed mRNA in the presence of chemical substance/The level of expressed mRNA in the absence of chemical substance” value (yeast gene YIL140W) was 3.3 and the “The level of expressed mRNA in the presence of chemical substance/ (in its absence), gene YJL070C” value (yeast gene YJL070C, ratio of DNA chip fluorescence intensity to that without chemical substance) was 3.5.
